Data from patent US20020142362A1, “Colorimetric assay system using thiopeptolide substrate for detection of membrane-type matrix metalloproteinase” (priority 2000, published 2002).
Numbered stars: 1 amine (or outer) side, 2 acyl side, 3 side chain; on linkers, the order of the positions; unused ones are H or OH. Bridge positions count the residues as written; N and C are the ends. Square brackets hold non-standard residues; d marks the D form. Peptide text beside a SMILES is read from it. I, II: the chains in the order shown. Actinocin(9to1) = Cc1c2oc3c(C)ccc(C(=O)[*:1])c3nc-2c(C(=O)[*:2])c(N)c1=O; NMeV = CN[C@H](C(=O)O)C(C)C; Sar = CNCC(=O)O

What was measured:
[1] = tested on: MT-MMP; experiment: Thiopeptolide assay on cultured trabecular meshwork cells (digitonin-permeabilized); type: cell-based, Rhesus monkey; details: for thiopeptolide assay result versus control CACM: control cells (no Con A), 1 hour preincubation + 24 hours
Method: (§1) The assay of the present invention may be made by first preparing the selected biological sample and assay buffer. To prepare the biological sample, the biological sample such as but not limited to cultured cells were placed in microtiter plates and incubated at approximately 37° C. for up to approximately 96 hours with serum-free, defined medium. A portion of the serum-free, defined medium contained test compounds, while another portion was maintained free of test compounds to serve as controls. In some cases, the biological sample was then processed as a permeabilized “ghost” as described in Example 1 below. The biological sample was then rinsed several times with cold isotonic balanced saline or Tris(hydroxymethyl)aminomethane (TRIS) buffer at pH 7.2 - 7.5. The saline or buffer was then replaced by filter-sterilized, isotonic assay buffer (295 mOsm) consisting of approximately 50 mmol/L N-[2-hydroxyethyl]piperazine-N′-[2-ethane sulfonic acid] (HEPES), approximately 106 mmol/L sodium chloride, approximately 3.5 mmol/L potassium chloride, approximately 5 mmol/L calcium chloride, and approximately 0.02% (v/v) polyoxyethylene 23 lauryl ether (Brij 35) or a similar detergent, final pH approximately 7.5, at approximately room temperature. The Brij 35 was added fresh, and the final mixture was protected from excessive light exposure. The volume of assay buffer for each biological sample was approximately one-half the final assay mixture volume, the other half being made up of the thiopeptolide substrate/thiol reagent solution. For example, when 96-well microtiter plates were employed, the assay mixture volume was approximately 200 microliters.
Next the thiopeptolide substrate/thiol reagent solution was prepared. Preferably, the synthetic thiopeptolide substrate acetyl-prolyl-leucyl-glycyl-[2-mercapto-4-methyl-pentanoyl]-leucyl-glycyl-ethyl ester (Bachem Bioscience, Inc., King of Prussia, Pa.) is used in the solution due to its ready availability. The synthetic thiopeptolide was stored as a 40X, 20 mmol/L stock in DMSO, sealed from light and air, and stored with desiccant at approximately −70° C.. The thiol reagent, 4,4-dithiodipyridine,5,5′-dithio bis(2-nitro-benzoic acid) (DTNB) or the like, but preferably DTNB, was prepared as a 100X, 50 mmol/L stock in DMSO, and stored protected from light with desiccant at approximately room temperature. The combined thiopeptolide and DTNB were both diluted to appropriately 1 mmol/L in assay buffer without Brij 35 to yield a solution that was 2X for both chemicals after thorough mixing. The assay reaction was started when this 2X solution was added in a 1:1 ratio, with thorough mixing, to the assay buffer in which the cells had been equilibrated. The final concentration of both thiopeptolide and DTNB were 0.5 mmol/L.
The assay reaction was then allowed to progress to a suitable endpoint beyond which no further color reaction proceeded, possibly due to product inhibition. This endpoint is usually reached after approximately two hours. During the two hours the samples were gently agitated in an approximately 37° C. humidified incubator. Once the endpoint was reached the microtiter plates were placed into a plate reader and optical density (OD) was measured at 410 nm. Blank values, the OD readings for samples without cells, used to assess non-enzymatic, non-specific hydrolysis of substrate, were then subtracted from all sample OD measurements. The OD measurements taken at 410 nm may be used as a measure of the amount of MT-MMP present on the samples. The effects of experimental conditions on the expression of MT-MMP may then be compared with that of the control samples.
Details of the signal transduction process initiated by Con A culminating in proGelatinase A activation by MT-MMP remained to be elucidated. […]

[2] = tested on: MT1-MMP; experiment: Thiopeptolide assay on HT-1080 cells; type: cell-based, Human
Text: The activation of proGelatinase A was shown in the noted Lohi and Stanton work to be inhibitable by tissue inhibitor of [matrix] metalloproteinases-2 (TIMP-2), and by a synthetic hydroxamate inhibitor of MMP's, but not by metalloproteinases-1 (TIMP-1). As additional evidence that the subject assay detects MT1-MMP in human and non-human primate TM cells, the zymographic results of the Lohi and Stanton work were reproduced using the subject assay, using the same methodology as described herein for TM cells, with […] and […].

[3] = tested on: proGelatinase A; details: cited from earlier work; for activation of Gelatinase A from the proenzyme form (zymography): HT-1080, in vitro incubation
[4] = tested on: MT1-MMP; details: HT-1080, in vitro incubation; cited from earlier work
[5] = tested on: proGelatinase A; experiment: Zymography of conditioned medium from cultured TM cells; type: cell-based
[6] = tested on: MT-MMP; experiment: Thiopeptolide assay on excised trabecular meshwork from human anterior segment organ culture; type: cell-based
Method: as §1
Next the thiopeptolide substrate/thiol reagent solution was prepared. Preferably, the synthetic thiopeptolide substrate acetyl-prolyl-leucyl-glycyl-[2-mercapto-4-methyl-pentanoyl]-leucyl-glycyl-ethyl ester (Bachem Bioscience, Inc., King of Prussia, Pa.) is used in the solution due to its ready availability. The synthetic thiopeptolide was stored as a 40X, 20 mmol/L stock in DMSO, sealed from light and air, and stored with desiccant at approximately −70° C.. […]
The assay reaction was then allowed to progress to a suitable endpoint beyond which no further color reaction proceeded, possibly due to product inhibition. […] Once the endpoint was reached the microtiter plates were placed into a plate reader and optical density (OD) was measured at 410 nm. Blank values, the OD readings for samples without cells, used to assess non-enzymatic, non-specific hydrolysis of substrate, were then subtracted from all sample OD measurements. […]

[7] = tested on: MT-MMP; experiment: Thiopeptolide assay on cultured TM cells with protease inhibitors; type: cell-based
Text: Evidence has been presented by Mazzieri, et al., EMBO Journal 16: 2319-2332 (1997) that the urokinase-plasmin system may be in part responsible for activation of proGelatinase A in some cell systems. It was found in studying the subject thiopeptolide assay that a lesser fraction of the subject thiopeptolide assay activity could be inhibited by serine protease inhibitors, which are ineffective with MMP's. However, when these latter inhibitors were employed with TM cells stimulated by Con A, the percentage increase in thiopeptolide assay activity, compared to control cultures, was in fact augmented due to the Con A treatment.

[8] = Con A-treated cells (10 ug/ml), inhibitor 1 hour preincubation, then Con A plus inhibitor 24 hours, Act D 500 ng/ml, CHX 20 ug/ml

| Molecule | MT-MMP activity in thiopeptolide assay versus control CACM [1, 8] | thiopeptolide assay result versus control CACM ([1]; Act D 500 ng/ml, CHX 20 ug/ml) | activity in thiopeptolide assay following treatment [2] | activation of Gelatinase A from the proenzyme form (zymography) [3] | expression of MT1-MMP (Western immunoblot) [4] | also measured |
| --- | --- | --- | --- | --- | --- | --- |
| Cc1c2oc3c(C)ccc(C(=O)N[C@@H]4C(=O)N[C@H](C(C)C)C(=O)N5CCC[C@H]5C(=O)N(C)CC(=O)N(C)[C@@H](C(C)C)C(=O)O[C@@H]4C)c3nc-2c(C(=O)N[C@@H]2C(=O)N[C@H](C(C)C)C(=O)N3CCC[C@H]3C(=O)N(C)CC(=O)N(C)[C@@H](C(C)C)C(=O)O[C@@H]2C)c(N)c1=O [Act D, actinomycin D] (I: T[dV]P[Sar][NMeV] / II: T[dV]P[Sar][NMeV]; ester I:1-I:C, II:1-II:C; linker I:N-II:N via Actinocin(9to1)) | slightly, but discernibly, higher than control | not significantly different from control CACM alone |  |  |  | MT-MMP activity in thiopeptolide assay versus control CACM ([1]; Con A for 6 hrs, then Con A plus Act D for 18 hours): slightly, but discernibly, higher than control |
| C[C@@H]1C[C@@H]([C@H](O)CC2CC(=O)NC(=O)C2)C(=O)[C@@H](C)C1 [CHX, cycloheximide] | not significantly different from control CACM alone | not significantly different from control CACM alone |  |  |  |  |
| CCCCCCCCCCCCCC(=O)O[C@@H]1[C@@H](C)[C@@]2(O)[C@@H](C=C(CO)C[C@]3(O)C(=O)C(C)=C[C@@H]23)[C@@H]2C(C)(C)[C@]12OC(C)=O [PMA, phorbol 12-myristate 13-acetate] |  |  | Increased activity | activate | increase expression |  |
| Concanavalin A [Con A] |  |  | Increased activity | activate | increase expression | MT-MMP expression over control levels (OD 410 nm, thiopeptolide assay) ([1]; Con A 10 ug/ml in CACM, 24 hours, vs control CACM): more than 200%; activation of proGelatinase A (zymography) [5]: robust activation; OD readings over control ([6]; 100 ug/ml Con A): 200%; OD readings over control ([6]; 30 - 80 ug/ml Con A): approximately 100%; thiopeptolide assay result versus control medium ([6]; Con A below 30 ug/ml): indistinguishable from simply incubating anterior segment quadrants in control medium; threshold Con A concentration for MT-MMP expression in intact TM ([6]; human anterior segment quadrants, 24 + 18 hour incubation): 30 µg/mL |
| TIMP-1: metalloproteinases-1 (TIMP-1), tissue inhibitor of metalloproteinases |  |  |  |  |  | inhibition of activation of proGelatinase A ([3]; HT-1080, Lohi and Stanton work): not; inhibition of activity increases in thiopeptolide assay [7]: not |
